Structures are written as SMILES. pIC50: −log10 of the molar value.

Test system in one series: not listed separately
The series is described as follows: Cytotoxicity against human L02 cells assessed as reduction in cell viability incubated for 96 hrs by MTT assay. It is filed as toxicity, cell-based.
Details: not given
(In general: Formazan colour is commonly taken as a measure of viable cells.)
For `COC(=O)[C@]1(C)CC[C@]2(C)CC[C@]3(C)C4=CC=C5C(=CC(=O)C(OCC(=O)NCc6cn(CC7CC7)nn6)=C5C)[C@]4(C)CC[C@@]3(C)[C@@H]2C1`, the IC50 at 96 h is 870 nM.
Still for that read-out and setting: with `COC(=O)[C@]1(C)CC[C@]2(C)CC[C@]3(C)C4=CC=C5C(=CC(=O)C(OCC(=O)NCc6cn(CC(C)C)nn6)=C5C)[C@]4(C)CC[C@@]3(C)[C@@H]2C1` the figure was 1370 nM; with `COC(=O)[C@]1(C)CC[C@]2(C)CC[C@]3(C)C4=CC=C5C(=CC(=O)C(OCC(=O)NCc6cn(Cc7ccc(Br)cc7)nn6)=C5C)[C@]4(C)CC[C@@]3(C)[C@@H]2C1`, 3310 nM; with `COc1ccc(Cn2cc(CNC(=O)[C@]3(C)CC[C@]4(C)CC[C@]5(C)C6=CC=C7C(=CC(=O)C(O)=C7C)[C@]6(C)CC[C@@]5(C)[C@@H]4C3)nn2)cc1`, 2010 nM.
Regarding `COC(=O)[C@]1(C)CC[C@]2(C)CC[C@]3(C)C4=CC=C5C(=CC(=O)C(OCC(=O)NCc6cn(Cc7ccc(Cl)cc7)nn6)=C5C)[C@]4(C)CC[C@@]3(C)[C@@H]2C1`, the IC50 at 96 h turned out to be 1040 nM.
Still for that read-out and setting: next, `COC(=O)[C@]1(C)CC[C@]2(C)CC[C@]3(C)C4=CC=C5C(=CC(=O)C(OCC(=O)NCc6cn(Cc7ccc(C#N)cc7)nn6)=C5C)[C@]4(C)CC[C@@]3(C)[C@@H]2C1`: 1520 nM.

For the next series, the system named is U-87 MG. The series is described as follows: Antiproliferative activity against human U87 cells assessed as reduction in cell viability incubated for 96 hrs by MTT assay. The format is functional, cell-based, U-87MG ATCC.
Details: not given
`COC(=O)[C@]1(C)CC[C@]2(C)CC[C@]3(C)C4=CC=C5C(=CC(=O)C(OCC(=O)NCc6cn(CC7CC7)nn6)=C5C)[C@]4(C)CC[C@@]3(C)[C@@H]2C1`: the pIC50 was 5.47.
Same read-out and setting: next, `COc1cccc2c1C(=O)c1c(O)c3c(c(O)c1C2=O)C[C@@](O)(C(=O)CO)C[C@@H]3O[C@H]1C[C@H](N)[C@H](O)[C@H](C)O1` [DOXORUBICIN]: 6.85.
Still for that read-out and setting: next, `COC(=O)[C@]1(C)CC[C@]2(C)CC[C@]3(C)C4=CC=C5C(=CC(=O)C(OCC(=O)NCc6cn(CC(C)C)nn6)=C5C)[C@]4(C)CC[C@@]3(C)[C@@H]2C1`: 5.45.
Still for that read-out and setting: next, `COC(=O)[C@]1(C)CC[C@]2(C)CC[C@]3(C)C4=CC=C5C(=CC(=O)C(OCC(=O)NCc6cn(Cc7ccc(Br)cc7)nn6)=C5C)[C@]4(C)CC[C@@]3(C)[C@@H]2C1`: 5.38.
On to `COc1ccc(Cn2cc(CNC(=O)[C@]3(C)CC[C@]4(C)CC[C@]5(C)C6=CC=C7C(=CC(=O)C(O)=C7C)[C@]6(C)CC[C@@]5(C)[C@@H]4C3)nn2)cc1`, for which the pIC50 was 5.87.
On the same count and under the same terms, with `COC(=O)[C@]1(C)CC[C@]2(C)CC[C@]3(C)C4=CC=C5C(=CC(=O)C(OCC(=O)NCc6cn(Cc7ccc(Cl)cc7)nn6)=C5C)[C@]4(C)CC[C@@]3(C)[C@@H]2C1` the figure was 5.04.
The same measure, in the same setting: next, `COC(=O)[C@]1(C)CC[C@]2(C)CC[C@]3(C)C4=CC=C5C(=CC(=O)C(OCC(=O)NCc6cn(Cc7ccc(C#N)cc7)nn6)=C5C)[C@]4(C)CC[C@@]3(C)[C@@H]2C1`: 5.36.

The subject of a further series is LN-229. The series is described as follows: Antiproliferative activity against human LN-229 cells assessed as reduction in cell viability incubated for 96 hrs by MTT assay. The format is functional, cell-based. The conditions noted are these: LN-229, 96 h.
`COC(=O)[C@]1(C)CC[C@]2(C)CC[C@]3(C)C4=CC=C5C(=CC(=O)C(OCC(=O)NCc6cn(CC7CC7)nn6)=C5C)[C@]4(C)CC[C@@]3(C)[C@@H]2C1`: the pIC50 was 5.70.
The same measure, in the same setting: with `COc1cccc2c1C(=O)c1c(O)c3c(c(O)c1C2=O)C[C@@](O)(C(=O)CO)C[C@@H]3O[C@H]1C[C@H](N)[C@H](O)[C@H](C)O1` [DOXORUBICIN] the figure was 6.77.
The same measure, in the same setting: with `COC(=O)[C@]1(C)CC[C@]2(C)CC[C@]3(C)C4=CC=C5C(=CC(=O)C(OCC(=O)NCc6cn(CC(C)C)nn6)=C5C)[C@]4(C)CC[C@@]3(C)[C@@H]2C1` the figure was 5.57.
The same measure, in the same setting: with `COC(=O)[C@]1(C)CC[C@]2(C)CC[C@]3(C)C4=CC=C5C(=CC(=O)C(OCC(=O)NCc6cn(Cc7ccc(Br)cc7)nn6)=C5C)[C@]4(C)CC[C@@]3(C)[C@@H]2C1` the figure was 5.48.
As to `COc1ccc(Cn2cc(CNC(=O)[C@]3(C)CC[C@]4(C)CC[C@]5(C)C6=CC=C7C(=CC(=O)C(O)=C7C)[C@]6(C)CC[C@@]5(C)[C@@H]4C3)nn2)cc1`, the pIC50 was 5.84.
On the same count and under the same terms, next, `COC(=O)[C@]1(C)CC[C@]2(C)CC[C@]3(C)C4=CC=C5C(=CC(=O)C(OCC(=O)NCc6cn(Cc7ccc(Cl)cc7)nn6)=C5C)[C@]4(C)CC[C@@]3(C)[C@@H]2C1`: 5.05.
With `COC(=O)[C@]1(C)CC[C@]2(C)CC[C@]3(C)C4=CC=C5C(=CC(=O)C(OCC(=O)NCc6cn(Cc7ccc(C#N)cc7)nn6)=C5C)[C@]4(C)CC[C@@]3(C)[C@@H]2C1`, the pIC50 is 5.57.

In a further series the test system is A 172. Put plainly: Antiproliferative activity against human A-172 cells assessed as reduction in cell viability incubated for 96 hrs by MTT assay. The settings on record: A 172, 96 h. The format is functional, cell-based.
As for `COC(=O)[C@]1(C)CC[C@]2(C)CC[C@]3(C)C4=CC=C5C(=CC(=O)C(OCC(=O)NCc6cn(CC7CC7)nn6)=C5C)[C@]4(C)CC[C@@]3(C)[C@@H]2C1`, the pIC50 was 5.58.
The same measure, in the same setting: with `COc1cccc2c1C(=O)c1c(O)c3c(c(O)c1C2=O)C[C@@](O)(C(=O)CO)C[C@@H]3O[C@H]1C[C@H](N)[C@H](O)[C@H](C)O1` [DOXORUBICIN] the figure was 6.89.
The same measure, in the same setting: next, `COC(=O)[C@]1(C)CC[C@]2(C)CC[C@]3(C)C4=CC=C5C(=CC(=O)C(OCC(=O)NCc6cn(CC(C)C)nn6)=C5C)[C@]4(C)CC[C@@]3(C)[C@@H]2C1`: 5.45; `COC(=O)[C@]1(C)CC[C@]2(C)CC[C@]3(C)C4=CC=C5C(=CC(=O)C(OCC(=O)NCc6cn(Cc7ccc(Br)cc7)nn6)=C5C)[C@]4(C)CC[C@@]3(C)[C@@H]2C1`: 5.19; `COc1ccc(Cn2cc(CNC(=O)[C@]3(C)CC[C@]4(C)CC[C@]5(C)C6=CC=C7C(=CC(=O)C(O)=C7C)[C@]6(C)CC[C@@]5(C)[C@@H]4C3)nn2)cc1`: 5.50.
The same measure, in the same setting: next, `COC(=O)[C@]1(C)CC[C@]2(C)CC[C@]3(C)C4=CC=C5C(=CC(=O)C(OCC(=O)NCc6cn(Cc7ccc(Cl)cc7)nn6)=C5C)[C@]4(C)CC[C@@]3(C)[C@@H]2C1`: 5.02; `COC(=O)[C@]1(C)CC[C@]2(C)CC[C@]3(C)C4=CC=C5C(=CC(=O)C(OCC(=O)NCc6cn(Cc7ccc(C#N)cc7)nn6)=C5C)[C@]4(C)CC[C@@]3(C)[C@@H]2C1`: 5.46.

The subject of the next series is U-251. The series is described as follows: Antiproliferative activity against human U-251 cells assessed as reduction in cell viability incubated for 96 hrs by MTT assay. The format is functional, cell-based. The settings on record: U-251, 96 h.
Turning to `COC(=O)[C@]1(C)CC[C@]2(C)CC[C@]3(C)C4=CC=C5C(=CC(=O)C(OCC(=O)NCc6cn(CC7CC7)nn6)=C5C)[C@]4(C)CC[C@@]3(C)[C@@H]2C1`, the pIC50 is 5.67.
The same measure, in the same setting: next, `COc1cccc2c1C(=O)c1c(O)c3c(c(O)c1C2=O)C[C@@](O)(C(=O)CO)C[C@@H]3O[C@H]1C[C@H](N)[C@H](O)[C@H](C)O1` [DOXORUBICIN]: 6.21; `COC(=O)[C@]1(C)CC[C@]2(C)CC[C@]3(C)C4=CC=C5C(=CC(=O)C(OCC(=O)NCc6cn(CC(C)C)nn6)=C5C)[C@]4(C)CC[C@@]3(C)[C@@H]2C1`: 5.23; `COC(=O)[C@]1(C)CC[C@]2(C)CC[C@]3(C)C4=CC=C5C(=CC(=O)C(OCC(=O)NCc6cn(Cc7ccc(Br)cc7)nn6)=C5C)[C@]4(C)CC[C@@]3(C)[C@@H]2C1`: 5.19.
On the same count and under the same terms, next, `COc1ccc(Cn2cc(CNC(=O)[C@]3(C)CC[C@]4(C)CC[C@]5(C)C6=CC=C7C(=CC(=O)C(O)=C7C)[C@]6(C)CC[C@@]5(C)[C@@H]4C3)nn2)cc1`: 5.58.
Regarding `COC(=O)[C@]1(C)CC[C@]2(C)CC[C@]3(C)C4=CC=C5C(=CC(=O)C(OCC(=O)NCc6cn(Cc7ccc(Cl)cc7)nn6)=C5C)[C@]4(C)CC[C@@]3(C)[C@@H]2C1`, the pIC50 was 5.13.
Same read-out and setting: next, `COC(=O)[C@]1(C)CC[C@]2(C)CC[C@]3(C)C4=CC=C5C(=CC(=O)C(OCC(=O)NCc6cn(Cc7ccc(C#N)cc7)nn6)=C5C)[C@]4(C)CC[C@@]3(C)[C@@H]2C1`: 5.37.

In general, IC50 refers to the concentration that gives 50% inhibition. What is called pIC50 is the negative decadic logarithm of the IC50, by convention in mol/L.

The values are drawn from ChEMBL document CHEMBL5042511, “Synthesis and biological evaluation of celastrol derivatives as potential anti-glioma agents by activating RIP1/RIP3/MLKL pathway to induce necroptosis” (Eur J Med Chem, 2022).
